According to patent publication US20220002333A1, “CRYSTALLINE FORM A OF 2'-FLUORO-4'-SUBSTITUTED NUCLEOSIDE ANALOGUE I AND PREPARATION METHOD AND APPLICATION THEREOF” (Henan Genuine Biotech Co., Ltd., priority 2019, published 2022):
Like-named read-outs stand apart in the source and are kept apart here.

Columns and labels:
[1] = system: leukemia; experiment: Anticancer activity on leukemia
Description: (§1) The anticancer activity of the crystalline form A of the compound I on B-cell non-Hodgkin lymphoma, lung cancer, gastric cancer, colorectal cancer and leukemia was determined according to the literature method (Wang, Q. et al Biochemical Pharmacology 2011, 81, 848; Asian Pacific Journal of Cancer Prevention 2014, 15, 6829).

[2] = system: B-cell non-Hodgkin's lymphoma; experiment: Anticancer activity on B-cell non-Hodgkin's lymphoma
Description: The anticancer (non-Hodgkin's lymphoma) activity of the crystalline form A of the compound I was determined according to the literature method (Asian Pacific Journal of cancer prevention 2014, 15, 6829).
as §1

[3] = system: lung cancer; experiment: Anticancer activity on lung cancer
Description: as §1

[4] = system: T-cell lymphoma; experiment: Anti-T-cell lymphoma activity in patient-derived tumor xenografts (PDX) mouse model; format: in vivo
Description: The inhibitory effect of the crystalline form A of the compound I on T-cell lymphoma was determined by patient-derived tumor xenograft (PDX).
After the patient's T-cell lymphoid carcinoma tissue was sampled, the tissue was transferred to a specific pathogen free (SPF) animal room through a transfer window. In a super clean table, phosphate buffered saline (PBS) buffer with double antibodies, Dulbecco's modified eagle medium (DMEM) medium, Petri dish and ice bag were prepared. An appropriate amount of PBS and DMEM were poured to the Petri dishes on ice. The tissue was taken out and put into PBS for preliminary cleaning, and necrotic and normal tissue was removed. The tissue in PBS was transferred to DMEM. The remaining tissue was cut into small pieces of 20-30 mm^3 patches, which were transplanted into the armpit and back of mice with puncture needles. Each mouse was inoculated with the tissue on one site. The tumors of the inoculated mice were taken out regularly, photographed, and the volume changes thereof were compared (see FIG. 9).

[5] = Stability evaluation of crystalline forms under high temperature, high humidity and light (XRPD); format: physicochemical; conditions: for Stability of crystalline form under high humidity: 40° C. and 75% humidity for five and ten days; for Stability of crystalline form under high temperature: 60° C. for five days and ten days; for Stability in stability evaluation (overall): high temperature, high humidity and light
Description: The crystalline forms of the compound were systematically screened by means of unitary method, binary method, cooling, dissolution (positive and negative), diffusion and so on, and two crystalline forms were found: crystalline form A and amorphous crystalline form B. The stabilities of the crystalline form A and the crystalline form B under high temperature, high humidity and light were evaluated respectively. […] These experimental conditions were as follows: the high temperature condition is 60° C. for five days and ten days; the high humidity condition is 40° C. and 75% humidity for five and ten days; the light conditions were 4500 lux for five and ten days.

[6] = Static electricity and mixing uniformity with excipients / content of compound I in tablets; format: physicochemical; conditions: for Drug content for each tablet: 10 tablets arbitrarily selected, average 1 mg compound I and 149 mg excipients per 150 mg tablet; for Static: solid compound I
Description: After 10 days of storage at 40° C./75% humidity, 80-90% of the solid compound I with amorphous form B is gradually transformed into stable crystalline form A. The compound of crystalline form A is a loose solid. Because the dosage of the compound I for adults with AIDS is only 1-3 mg per day, which is a low amount, the uniform mixing of the compound with an excipient is crucial to ensure the anti HIV effect of the drug.

[7] = listed as sheet amorphous solid B

Compound	Inhibitory effect on leukemia [1]	Inhibitory effect on B-cell non-Hodgkin's lymphoma [2]	Inhibitory effect on lung cancer [3]	Inhibition of growth of T-cell lymphoma ([4]; dose 2 mg/kg)	Inhibition of growth of T-cell lymphoma ([4]; dose 4 mg/kg)	Inhibition of growth of T-cell lymphoma ([4]; dose 8 mg/kg)	Stability of crystalline form under high humidity [5]	Stability of crystalline form under high temperature [5]	Stability in stability evaluation (overall) [5]	Mixing with excipients [6]	Drug content for each tablet [6] [mg]	Static [6]	Static ([6]; listed as Crystalline form)	Portion of solid transformed into stable crystalline form A ([5]; after 10 days of storage at 40° C./75% humidity)	Drug content for each tablet ([6]; listed as Amorphous B) [mg]	Mixing with excipients [6, 7]	Static ([6]; listed as Amorphous B)	Static [6, 7]
[N-]=[N+]=N[C@]1(CO)O[C@@H](n2ccc(N)nc2=O)[C@@H](F)[C@@H]1O [compound I, 2′-fluoro-4′-substituted nucleoside analogue I]	significant inhibitory effects	significant inhibitory effects	significant inhibitory effects	–	–	–	–	–	–	–	–	–	–	–	–	–	–	–
[N-]=[N+]=N[C@]1(CO)O[C@@H](n2ccc(N)nc2=O)[C@@H](F)[C@@H]1O [crystalline form A, 2′-fluoro-4′-substituted nucleoside analogue I]	–	–	–	significantly inhibit	significantly inhibit	significantly inhibit	stable	stable	good stability	easy to mix evenly with excipients	0.95 to 1.05	no static electricity	No	–	–	–	–	–
[N-]=[N+]=N[C@]1(CO)O[C@@H](n2ccc(N)nc2=O)[C@@H](F)[C@@H]1O [crystalline form B, 2′-fluoro-4′-substituted nucleoside analogue I]	–	–	–	–	–	–	gradually transformed into crystalline form A	gradually transformed into crystalline form A	generally stable	–	–	–	–	80-90%	0.5 to 1.5	not easy to mix evenly with excipients	Yes	obvious static electricity
